Test results published in patent US20180318311A1, “TRICYCLIC 2-QUINOLINONES AS ANTIBACTERIALS” (priority 2017, published 2018).
Converted amounts (≈) assume the structure as drawn. Counter-ions that a name gives are not always drawn. Like-named read-outs stand apart in the source and are kept apart here.

Experiments:
Assay type in all cases: cell-based
[1] = system: S. aureus ATCC 49951 (NB01006); test: MIC by broth microdilution, S. aureus NB01006; conditions: Staphylococcus aureus, ATCC49951, CAMHB, 35° C., 20 hours, read-out: Antibacterial activity (MIC) NB01006
How it was run: (§1)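 Per CLSI, strains grown overnight on Mueller-Hinton agar are tested in cation-adjusted Mueller-Hinton broth at about 5×10^5 CFU/mL against serially diluted compound, 1% DMSO final. Incubation runs 20 h at 35° C; MIC is judged visually with OD600 support.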

[2] = system: S. aureus NB01006-AVR005, gyrA (S84L), grlA (580F) and grlB (E471K); test: microbe, parasite or virus in culture; conditions: Staphylococcus aureus, 20 h, read-out: Antibacterial activity (MIC) NB01006-AVR005
How it was run: as §1

[3] = system: S. aureus NB01080 fluoroquinolone-resistant clinical isolate; test: MIC by broth microdilution, S. aureus NB01080; conditions: Staphylococcus aureus, CAMHB, 35° C., 20 hours, read-out: Antibacterial activity (MIC) NB01080
How it was run: as §1

[4] = system: E. faecalis ATCC 29212 (NB04001); test: MIC by broth microdilution, E. faecalis NB04001; conditions: Enterococcus faecalis, ATCC29212, CAMHB, 35° C., 20 hours, read-out: Antibacterial activity (MIC) NB04001
How it was run: as §1

[5] = system: S. pneumoniae ATCC 25922 (NB07001); test: MIC by broth microdilution, S. pneumoniae NB07001; conditions: Streptococcus pneumoniae, read-out: Antibacterial activity (MIC) NB07001
How it was run: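 MIC in μg/mL taken as the lowest concentration with no visible growth, checked by 600 nm reading after 20 h at 35°C, ambient air. Strains tested per CLSI microdilution in cation-adjusted Mueller-Hinton broth at about 5×10^5 CFU/mL, compounds as two-fold series, 1% DMSO final.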

[6] = system: E. coli ATCC 25922 (NB27001); test: MIC by broth microdilution, E. coli NB27001; conditions: Escherichia coli, ATCC25922, CAMHB, 35° C., 20 hours, read-out: Antibacterial activity (MIC) NB27001
How it was run: as §1

[7] = system: P. aeruginosa NB52019, wild-type PAO1 strain; test: MIC by broth microdilution, P. aeruginosa NB52019; conditions: Pseudomonas aeruginosa, CAMHB, 35° C., 20 hours, read-out: Antibacterial activity (MIC) NB52019
How it was run: as §1

[8] = ATCC25922, S. pneumoniae, CAMHB supplemented with 5% lysed horse blood, 35° C., 20 hours

Compound | MIC [1] [µg/mL] | MIC [2] [µg/mL] | MIC [3] [µg/mL] | MIC [4] [µg/mL] | MIC ([5]; ATCC25922, 20 h) [µg/mL] | MIC [6] [µg/mL] | MIC [7] [µg/mL] | MIC [5, 8] [µg/mL]
C[C@H]1COc2c(N3CC[C@@H](C4(N)CC4)C3)cc(F)c3cc(C(=O)O)c(=O)n1c23 [Example 12.1, (S)-10-((R)-3-(1-aminocyclopropyl)pyrrolidin-1-yl)-8-fluoro-3-methyl-5-oxo-2,3-dihydro-5H-[1,4]oxazino[2,3,4-ij]quinoline-6-carboxylic acid trifluoroacetate salt] | < 1 | < 1 | < 1 | < 1 | < 1 | < 1 | 1 to 32 | –
NC1([C@@H]2CCN(c3c(F)cc4cc(C(=O)O)c(=O)n5c4c3OC[C@@H]5CO)C2)CC1.O=CO [Example 2, (S)-10-((R)-3-(1-aminocyclopropyl)pyrrolidin-1-yl)-9-fluoro-3-(hydroxymethyl)-5-oxo-2,3-dihydro-5H-[1,4]oxazino[2,3,4-ij]quinoline-6-carboxylic acid formate salt] | > 32 | > 32 | > 32 | > 32 | – | > 32 | > 32 | > 32
C[C@H]1COc2c(N3CCC(O)(CN)CC3)c(F)cc3cc(C(=O)O)c(=O)n1c23 [Example 1.68, (S)-10-(4-(aminomethyl)-4-hydroxypiperidin-1-yl)-9-fluoro-3-methyl-5-oxo-2,3-dihydro-5H-[1,4]oxazino[2,3,4-ij]quinoline-6-carboxylic acid] | > 32 | > 32 | > 32 | > 32 | > 32 | > 32 | > 32 | –
C[C@H]1COc2c(N3CC[C@@H](C4(N)CCCC4)C3)c(F)cc3cc(C(=O)O)c(=O)n1c23 [Example 1.75, (S)-10-((R)-3-(1-aminocyclopentyl)pyrrolidin-1-yl)-9-fluoro-3-methyl-5-oxo-2,3-dihydro-5H-[1,4]oxazino[2,3,4-ij]quinoline-6-carboxylic acid] | < 1 | 1 to 32 (≈ 2.41 to 77 µM) | 1 to 32 (≈ 2.41 to 77 µM) | 1 to 32 (≈ 2.41 to 77 µM) | < 1 | 1 to 32 (≈ 2.41 to 77 µM) | > 32 | –
C[C@H]1COc2c(N3CCC4(CCC4N)CC3)c(F)cc3cc(C(=O)O)c(=O)n1c23 (single isomer, unassigned) [Example 1.32] | 1 to 32 (≈ 2.49 to 79.7 µM) | > 32 | > 32 | 1 to 32 (≈ 2.49 to 79.7 µM) | 1 to 32 (≈ 2.49 to 79.7 µM) | > 32 | > 32 | –
C[C@H]1COc2c(N3CC4CCCC(C3)N4)c(F)cc3cc(C(=O)O)c(=O)n1c23 [Example 1.66, (3S)-10-(3,9-diazabicyclo[3.3.1]nonan-3-yl)-9-fluoro-3-methyl-5-oxo-2,3-dihydro-5H-[1,4]oxazino[2,3,4-ij]quinoline-6-carboxylic acid] | 1 to 32 (≈ 2.58 to 82.6 µM) | > 32 | > 32 | > 32 | – | 1 to 32 (≈ 2.58 to 82.6 µM) | > 32 | 1 to 32 (≈ 2.58 to 82.6 µM)
C[C@H]1COc2c(N3C[C@@H](CO)[C@@H](CO)C3)c(F)cc3cc(C(=O)O)c(=O)n1c23 [Example 1.79, (S)-10-((3R,4S)-3,4-bis(hydroxymethyl)pyrrolidin-1-yl)-9-fluoro-3-methyl-5-oxo-2,3-dihydro-5H-[1,4]oxazino[2,3,4-ij]quinoline-6-carboxylic acid] | 1 to 32 (≈ 2.55 to 81.6 µM) | > 32 | > 32 | > 32 | > 32 | > 32 | > 32 | –
C[C@H]1COc2c(N3CC[C@@H](C4(N)CC4)C3)c(Cl)cc3cc(C(=O)O)c(=O)n1c23 [Example 18, (S)-10-((R)-3-(1-aminocyclopropyl)pyrrolidin-1-yl)-9-chloro-3-methyl-5-oxo-2,3-dihydro-5H-[1,4]oxazino[2,3,4-ij]quinoline-6-carboxylic acid hydrochloride salt] | 1 to 32 | > 32 | 1 to 32 | 1 to 32 | < 1 | > 32 | > 32 | –
